Values of other authors, collected in patent publication US20230172202A1, “INSECT AND NON-INSECT ARTHROPOD PEST REPELLENT COMPOSITIONS AND METHODS” (Livful Inc., priority 2021, published 2023).

Columns and labels:
mosquitos = conditions: 25% active ingredient (IR3535 in ethanol); human subjects, field
[1] = according to the manufacturer (Merck KGaA)

Row | ideal pH for IR3535 [1] | Compound | mean complete protection time (mean CPT) (mosquitos) [h]
1 | 6.0-6.5 | CCCCN(CCC(=O)OCC)C(C)=O [IR3535®, ethyl butylacetylaminopropionate] | 3.0
2 |  | CCN(CC)C(=O)c1cccc(C)c1 [DEET, N,N-diethyl-m-toluamide] | 5.6
